The subject of series [1] is dopaminergic (D2) receptors. Particulars: state of the art; cited from earlier work.
The conditions of series [2]: state of the art; cited from earlier work.
A further series concerns rats. Particulars: state of the art; cited from earlier work.
In series [3] the target is T1, sigma receptors (Rattus norvegicus, UniProt Q9R0C9).
T1 construct: (SKF 10,047/rat brain membranes); from tissue; host or cells: rat brain membranes
In words: Sigma binding, SKF 10,047/rat brain membranes (Table 1.B). Particulars: rat brain membranes. As to the method:
(§1) Tests of binding to phencyclidine and dopamine D2 receptors were carried out to study the possible undesirable interactions of the compounds of the invention with these receptors. The ligands used are [^3 H]-TCP for phencyclidine and [^3 H]spiroperidol for dopamine.
(§2) The binding experiments are carried out with the sigma ligands (+)-[^3 H]-SKF10,047 and [^3 H]-TCP according to the technique described by Largent B. L. et al. in J. Pharmacol. Exp. Ther. 238, 1986, p 739-748, the principle of which is to place in competition the respective affinities of the product under study and that of a radioactive characteristic ligand for sigma receptors.
(§3) The technique consists in incubating solutions of suitable concentrations of the test products with standard samples of membranes loaded with the labeled ligand, and then in determining the radioactivity of the solution after filtration.
(§4) The results are processed so as to calculate the IC50 of the product under study, which represents the nanomolar concentration of solution capable of inhibiting 50% of the binding of the tritiated ligand to the sigma receptors of the membranes used.
(§5) The SKF 10,047 binding tests are performed with guinea pig or rat brain membranes, those with DTG and TCP are performed with rat brain membranes; the D2 binding tests are performed with guinea pig brain membranes.

For series [4], the target named is T2, sigma receptors (Cavia porcellus, UniProt Q60492).
T2 construct: from tissue; host or cells: guinea pig brain membranes
T2 sequence (Q60492 whole entry): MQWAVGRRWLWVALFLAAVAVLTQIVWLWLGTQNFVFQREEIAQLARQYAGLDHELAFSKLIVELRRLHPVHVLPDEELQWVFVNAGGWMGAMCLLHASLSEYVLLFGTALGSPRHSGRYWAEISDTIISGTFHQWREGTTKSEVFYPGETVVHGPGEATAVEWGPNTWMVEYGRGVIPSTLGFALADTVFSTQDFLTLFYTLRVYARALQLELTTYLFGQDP
Put plainly: Sigma binding test with (+)-[3H]-SKF10,047, guinea pig brain membranes (Table 1.A). The conditions noted are these: read-out: SKF10047 guinea pig IC50. As to the method:
as §1, §2, §3, §4, §5

Series [5] concerns the target sigma receptors. Put plainly: Sigma binding test with [3H]-DTG (Table 1.A). Particulars: guinea pig. The procedure: as §1
(§6) Binding with the ligand [^3 H]-DTG is carried out according to the technique of Weber, E. M. et al., 1986, Proc. Natl. Acad. Sci., 83:8784-8788, and binding with the ligand [^3 H]spiroperidol is carried out according to the technique of Fields, J. Z., Reisine, R. D. and Yamamura, H. 1., Brain Res., 136,578 (1977).
as §3, §4, §5

Series [6] has as its target phencyclidine (PCP) receptors. Put plainly: PCP receptor binding test with [3H]-TCP (Table 1.A). The conditions noted are these: guinea pig. The procedure: as §1, §2, §3, §4, §5
For the next series, the target named is T3, dopamine D2 receptors (Rattus norvegicus, UniProt P61169).
T3 construct: from tissue; guinea pig by b443
T3 sequence (P61169 whole entry): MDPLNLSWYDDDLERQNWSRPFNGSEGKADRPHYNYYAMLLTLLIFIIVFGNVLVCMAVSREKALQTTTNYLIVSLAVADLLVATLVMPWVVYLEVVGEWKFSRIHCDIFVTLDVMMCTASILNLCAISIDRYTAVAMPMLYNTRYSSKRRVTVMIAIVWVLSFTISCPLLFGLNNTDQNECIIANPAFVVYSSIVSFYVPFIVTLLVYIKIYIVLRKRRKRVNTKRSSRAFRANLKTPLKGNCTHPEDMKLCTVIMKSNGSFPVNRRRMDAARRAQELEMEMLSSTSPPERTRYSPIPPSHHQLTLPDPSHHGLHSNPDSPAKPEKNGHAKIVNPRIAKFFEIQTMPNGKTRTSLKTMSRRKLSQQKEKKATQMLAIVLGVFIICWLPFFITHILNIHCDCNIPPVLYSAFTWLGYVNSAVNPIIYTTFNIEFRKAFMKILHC
In words: Dopamine D2 binding test with [3H]spiroperidol (Table 1.A). As to the method: as §1, §6, §3, §4, §5

For series [7], the system named is convulsions induced by electric shocks in rats. Put plainly: Protection against convulsions induced by electric shocks in rats. The format is in vivo, rat (male Sprague Dawley). Particulars: sc, 0.5 h; rat; subcutaneous; shock 30 minutes after injection; protection in 50% of the animals. The procedure: (§7) Moreover, "in vivo" tests enabled the capacity of the compounds of the invention (I) to inhibit convulsions induced by electric shocks in rats, and also their capacity to inhibit gastroduodenal ulcers caused by administration of cysteamine, to be detected.
a) Convulsions in rats: electric shock
The psychotropic properties of the compounds (I) were determined by the protection against convulsions induced by electric shocks in rats.
The emission of an electric shock causes a convulsive state in the animal, characterized by the convulsive extension of front and rear legs.
In practice, the study is carried out on groups of 10 male Sprague Dawley rats weighing approximately 100 grams, to which the product under study is administered subcutaneously in aqueous solution on the basis of 0.5 ml per 100 grams of the animal's body weight.
An electric shock is then produced 30 minutes after the injection by means of a UGO BASILE ECT UNIT 7801 electric shock apparatus (APELEX): frequency 50 cps/sec, pulse width 0.6 ms, shock duration 1 sec, intensity 90 mA. […] Each animal then receives a score, which is equal to 1 for the presence of tonic convulsions and zero for the absence of tonic convulsions. […] The results are compared statistically between the control group and the treated group by the test of Fisher R. A. and Yates F. (Biometrika, 1948, 35-149) and the ED50 (dose of the test compound giving rise to protection in 50% of the animals) is calculated by the method of Litchfield J. T. and Wilcoxon F. (J. Pharmacol. Exp. Therap., 1949, 96-99).

The test system of series [8] is cysteamine-induced ulcers. Put plainly: Inhibition of cysteamine-induced gastroduodenal ulcers in rats. The format is in vivo, rat (male Sprague Dawley). The conditions noted are these: rat, 50% inhibition of ulceration, read-out: Cysteamine ulcer ED50.
Source text: as §7
b) Cysteamine-induced ulcer
The activity of the compounds of the invention with respect to the gastrointestinal tract was shown in rats by their capacity to inhibit gastroduodenal ulcers caused by administration of cysteamine. (Robert and al., Digestion, 1974, 11, 199-211).
In practice, the study is carried out according to the method described by Selye, H. and Szabo, S., Nature, 1973, 244:458-459 on groups of male Sprague Dawley rats weighing 200 g on average, to which a solution of cysteamine hydrochloride is administered by subcutaneous injection on the basis of 400 mg/kg, […] the ulcerogenic agent. Eighteen hours later, the rats are sacrificed by elongation, and the stomach and duodenum are removed, rinsed with physiological solution and pinned onto a card. The presence of ulcers of the antropyloroduodenal region is looked for, and their area, expressed in mm^2, is evaluated by multiplying the two principal perpendicular axes of the lesion. Statistical analysis of the results is carried out using Student's test for the ulcerated areas in comparison with a control group. The results are presented in Table 2, and expressed as an ED50 of ulceration scores, which are the effective doses of product in (mg/kg) for a 50% inhibition of the cysteamine-induced ulcers.

Series [9] is described as follows: Stability remark on isolated product. The format is physicochemical. The conditions noted are these: free base, after Stage 3.
Series [10] has as its system dopaminergic D2 receptors. Particulars: state of the art; cited from earlier work.
In series [11] the test system is phencyclidine (PCP) receptors. The conditions noted are these: state of the art; cited from earlier work.

Molecules are shown by their SMILES. Where a name gives a salt, the structure may show the parent alone. Read-outs that look alike come from different tables or passages of the source. A value given as a limit tells only on which side of the number the result lay.

T1 sequence (Q9R0C9 whole entry): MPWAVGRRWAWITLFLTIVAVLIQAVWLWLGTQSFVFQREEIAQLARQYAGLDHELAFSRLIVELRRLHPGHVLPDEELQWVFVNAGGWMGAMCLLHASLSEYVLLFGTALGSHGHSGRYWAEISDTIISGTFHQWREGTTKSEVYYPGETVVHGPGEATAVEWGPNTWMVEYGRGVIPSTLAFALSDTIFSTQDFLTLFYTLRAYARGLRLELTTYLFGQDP

For `CCCN1CCC[C@H](c2cccc(O)c2)C1` [(+)-3-PPP, (+)-3-(3-hydroxyphenyl)-N-(1-propyl)piperidine], the “affinity for dopaminergic (D2) receptors” value in [1] is given as “strong affinity for dopaminergic (D2) receptors”.

Consider `Cc1ccccc1NC(=N)Nc1ccccc1C` [DTG, 1,3-di-o-tolylguanidine], for which the “crossing the blood-brain barrier” value in series [2] is “difficulty in crossing the blood-brain barrier”. In addition, the symptoms in rats result in the series with rats was “causes symptoms in rats similar to those of PCP”.

Regarding `CN(CCC1Cc2ccccc2C1=O)CC1CC1` (centres unmarked) [EXAMPLE 1, 2-[2-[(N-Cyclopropylmethyl-N-Methyl)Amino]Ethyl]-1-Oxo-1,2-Dihydroindene Hydrochloride], the IC50 on sigma receptors [3] came to 10.7 nM.

For the compound `CN(CCC1CCc2ccccc2C1=O)CC1CC1` (centres unmarked) [EXAMPLE 2, 2-[2-[(N-Cyclopropylmethyl-N-Methyl)Amino]Ethyl]-1-Oxo-1,2,3,4-Tetrahydronaphthalene Hydrochloride], the IC50 is 12 nM on sigma receptors [4]; 19.4 nM at sigma receptors [3]; 52 nM at sigma receptors [5]; above 10000 nM in series [6]; above 10000 nM at dopamine D2 receptors. In series [7], this compound had an ED50 of 0.1 mg/kg.

Consider `CN(CCC1CCc2ccccc2C1=O)CC1CCC1` (centres unmarked) [EXAMPLE 3, 2-[2-[(N-cyclobutylmethyl-N-methyl)amino]ethyl]-1-oxo-1,2,3,4-tetrahydronaphthalene], for which the IC50 was 5.24 nM at sigma receptors [4], 11.1 nM on sigma receptors [3], above 10000 nM in series [6] and 1170 nM on dopamine D2 receptors. In addition, the ED50 was 0.9 mg/kg in [7], 5.7 mg/kg in [8] (intraperitoneal route (ip)) and 8.6 mg/kg in [8] (oral route (po)).

For `CN(CCC1CC1)CCC1CCc2ccccc2C1=O` (centres unmarked) [EXAMPLE 4, 2-[2-[(N-Cyclopropylethyl-N-Methyl)Amino]Ethyl]-1-oxo-1,2,3,4-Tetrahydronaphthalene Hydrochloride], the IC50 at sigma receptors [4] is 2.83 nM; at sigma receptors [3], 10.6 nM; on sigma receptors [5] it was 56 nM; in series [6], above 10000 nM; at dopamine D2 receptors, 1910 nM. The ED50 in series [7] was determined as 1 mg/kg; in series [8] (oral route (po)), 15.6 mg/kg.

On to `CN(CCC1CCc2ccccc2C1=O)CC1CCCCC1` (centres unmarked) [EXAMPLE 5, 2-[2-[(N-Cyclohexylmethyl-N-Methyl)Amino]-Ethyl]-1-Oxo-1,2,3,4-Tetrahydronaphthalene Hydrochloride], for which the IC50 on sigma receptors [3] was 8.2 nM.

Consider `COc1ccc2c(c1)CCC(CCN(C)CC1CCCCC1)C2=O` (centres unmarked) [EXAMPLE 6, 2-[2-[(N-Cyclohexylmethyl-N-Methyl)Amino]-Ethyl]6-Methoxy-1-oxo-1,2,3,4-Tetrahydronaphthalene Hydrochloride], for which the half-maximal inhibitory concentration (IC50) at sigma receptors [3] is 8 nM.

For `O=C1c2ccccc2CCC1CCNC1CC1` (centres unmarked) [EXAMPLE 7, 2-[2-(N-Cyclopropylamino)Ethyl]-1-Oxo-1,2,3,4-Tetrahydronaphthalene], the stability result in [9] is “unstable”.

`CCCN(CCC1CCc2ccccc2C1=O)CC1CC1` (centres unmarked) [EXAMPLE 9, 2-[2-[(N-cyclopropylmethyl-N-propyl)amino]ethyl]-1-oxo-1,2,3,4-tetrahydronaphthalene] yielded an IC50 on sigma receptors [3] of 10.4 nM.

On sigma receptors [3], `CN(CCC1CCCc2ccccc2C1=O)CC1CC1` (centres unmarked) [EXAMPLE 10, 2-[2-[(N-Cyclopropylmethyl-N-Methyl)Amino]Ethyl]-1-Benzosuberone Hydrochloride] had a 50% inhibitory concentration (IC50) of 5.7 nM. Also, in series [7], the ED50 was 1.6 mg/kg.

`CN(CCC1CCCc2ccccc2C1=O)CC1CCCCC1` (centres unmarked) [EXAMPLE 11, 2-[2-[(N-Cyclohexylmethyl-N-Methyl)Amino]-Ethyl]-1-Benzosuberone Hydrochloride]: the IC50 on sigma receptors [3] was found to be 6.6 nM.

`CN(CCC1CCc2ccccc2C12OCCO2)CC1CC1` (centres unmarked) [EXAMPLE 12, 2-[2-[(N-cyclopropylmethyl-N-methyl)amino]ethyl]-1-[spiro(cyclodioxyethyl)]-1,2,3,4-tetrahydro naphhtalene]: the IC50 on sigma receptors [3] was found to be 30.5 nM. The ED50 in series [7] is 1.7 mg/kg; in [8] (intraperitoneal route (ip)), 11.6 mg/kg.

On to `CN(CCC1CCc2ccccc2C1=NO)CC1CCC1` (centres unmarked) [EXAMPLE 13, 2-[2-[(N-Cyclobutylmethyl-N-Methyl)Amino]Ethyl]-1-Hydroxyimino-1,2,3,4Tetrahydronaphthalene], for which, on sigma receptors [3], the IC50 stood at 7.7 nM.

On to `CN(CCC1COc2ccccc2C1=O)CC1CC1` (centres unmarked) [EXAMPLE 14, 3-[2-[(N-Cyclopropylmethyl-N-Methyl)Amino]-Ethyl]4-Chromanone Hydrchloride], for which the 50% inhibitory concentration (IC50) on sigma receptors [3] turned out to be 13.7 nM. For the same compound, the 50% effect level in series [7] (ED50) was put at a dose of 3.5 mg/kg.

For `CN(CCC1COc2ccccc2C1=O)CC1CCCCC1` (centres unmarked) [EXAMPLE 15, 3-[2-[(N-cyclohexylmethyl-N-methyl)amino]ethyl]-4-chromanone], at sigma receptors [3], the 50% inhibitory concentration (IC50) stood at 5.7 nM.

In turn, `CN(CCC1COc2ccc(F)cc2C1=O)CC1CCCCC1` (centres unmarked) [EXAMPLE 16, 3-[2-[(N-Cyclohexylmethyl-N-Methyl)Amino]-Ethyl]-6-Fluoro-4-Chromanone Hydrochloride] registered a concentration for half-maximal inhibition (IC50) at sigma receptors [3] of 6.2 nM.

`C=CCN(C)CCC1CCc2ccccc2C1=O` (centres unmarked) [EXAMPLE 17, 2-[2-[(N-Allyl-N-Methyl)Amino]Ethyl]-1-Oxo-1,2,3,4-Tetrahydronaphthalene Hydrochloride] displayed an IC50 at sigma receptors [3] of 13.3 nM.

For the compound `O=C(CCCN1CCC(O)(c2ccc(Cl)cc2)CC1)c1ccc(F)cc1` [Haloperidol, 4-[4-(p-chlorophenyl)-4-hydroxypiperidino]-4'-fluorobutyrophenone], in [1], the “affinity for dopaminergic (D2) receptors” value was “strong affinity for dopaminergic D2 receptors”. Also, the extrapyramidal disorders entry in series [10] is given as “can induce extrapyramidal disorders of the cataleptic type”.

For `C=CCN1CCC2(C)c3cc(O)ccc3CC1C2C` (centres unmarked) [SKF 10047, N-allylnormetazocine], in series [11], the “affinity for phencyclidine (PCP) receptors” value is “strong affinity for phencyclidine (PCP) receptors”.

With `C[C@H]1[C@H]2Cc3ccc(O)cc3[C@]1(C)CCN2CC1CC1` [cyclazocine], the “affinity for phencyclidine (PCP) receptors” value in [11] is recorded as “strong affinity for phencyclidine (PCP) receptors”.

As usually defined, the IC50 is the concentration that gives 50% inhibition. A word on the ED50: it is the midpoint of the dose-response relation.

Source of the values: patent publication US5326784A, “Cycloalkylalkylamines which are sigma-receptor ligands and their application in therapy” (Institut de Recherche Jouveinal, priority 1992, dated 1994).
